One test concerns the target T1, α-glucosidase I (Rattus norvegicus, UniProt O88941).
T1 construct: Purified α-glucosidase I and II were purified from rat liver by known methods; from tissue; host or cells: rat liver
T1 sequence (O88941 1-834): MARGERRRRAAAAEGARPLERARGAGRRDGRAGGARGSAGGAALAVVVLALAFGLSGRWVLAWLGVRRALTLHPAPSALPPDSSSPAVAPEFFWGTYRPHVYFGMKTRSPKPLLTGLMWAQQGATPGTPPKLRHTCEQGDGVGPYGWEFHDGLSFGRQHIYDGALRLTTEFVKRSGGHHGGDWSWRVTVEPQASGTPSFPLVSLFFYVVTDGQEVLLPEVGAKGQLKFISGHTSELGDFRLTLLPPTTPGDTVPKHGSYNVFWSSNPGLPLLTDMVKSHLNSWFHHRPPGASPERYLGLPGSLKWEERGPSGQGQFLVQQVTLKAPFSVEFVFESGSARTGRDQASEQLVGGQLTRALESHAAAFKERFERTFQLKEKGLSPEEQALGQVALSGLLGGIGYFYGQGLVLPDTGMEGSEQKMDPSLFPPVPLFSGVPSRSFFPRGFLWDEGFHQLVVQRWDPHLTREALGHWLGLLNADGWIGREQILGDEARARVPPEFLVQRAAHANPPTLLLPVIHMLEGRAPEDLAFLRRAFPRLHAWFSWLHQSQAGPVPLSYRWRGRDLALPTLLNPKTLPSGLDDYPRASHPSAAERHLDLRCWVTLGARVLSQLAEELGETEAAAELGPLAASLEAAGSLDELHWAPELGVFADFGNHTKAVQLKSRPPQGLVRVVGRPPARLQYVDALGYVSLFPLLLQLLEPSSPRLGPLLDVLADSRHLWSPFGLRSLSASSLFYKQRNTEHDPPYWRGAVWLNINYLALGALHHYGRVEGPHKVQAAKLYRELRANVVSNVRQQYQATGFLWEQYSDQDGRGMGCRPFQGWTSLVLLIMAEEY
As to the kind of experiment: In vitro inhibition of purified α-glucosidase I, 2-AA-labeled FOS substrates, HPLC. The class given is biochemical. Here is the method:
(§1) All chromatography was performed at 30° C. The first solvent, solvent A, was acetonitrile and the second solvent, solvent B, was Milli-Q water. […] Samples (<50 μl) were injected in Milli-Q water/acetonitrile (3/7, v/v). All chromatography was controlled, including data collection and processing, using Waters Empower software. Glucose units were determined, following comparison with a 2-AA-labeled glucose oligomer ladder (derived from a partial hydrolysate of dextran) external standard using Peak Time software (developed in-house).
Purified α-glucosidase I and II were purified from rat liver by known methods. […] 2-AA-labeled FOS were isolated and purified as substrates for either α-glucosidase I or II. Fluorescently-labeled substrates Glc1Man5GlcNAc1 (G1M5N), Glc2Man5GlcNAc1 (G2M5N), Glc3Man5GlcNAc1 (G3M5N) and Glc3Man9GlcNAc, (G3M9N2) were added to separate 1.5 ml centrifuge tubes with varying concentrations of imino sugar and dried under vacuum. […] Similarly, α-glucosidase II was incubated for 2 hours with G2M5N and 20 minutes with G1M5N. […] The reactions were stopped by the addition of 30 μl acetonitrile.

Another test deals with T2, α-glucosidase II (Rattus norvegicus, UniProt A0A8I6GFL3).
T2 construct: Purified α-glucosidase I and II were purified from rat liver by known methods; from tissue; host or cells: rat liver
Put plainly: In vitro inhibition of purified α-glucosidase II, (a) and (b) activities, 2-AA-labeled FOS substrates, HPLC. The class given is biochemical. Here is the method:
as §1
Purified α-glucosidase I and II were purified from rat liver by known methods. […] 2-AA-labeled FOS were isolated and purified as substrates for either α-glucosidase I or II. […] […] […] […] The reactions were stopped by the addition of 30 μl acetonitrile.

[1] abbreviates: nonamannose substrate Glc3Man9GlcNAc1, read-out: α-Glucosidase I Glc3Man9GlcNAc1 IC50.
[2] abbreviates: pentamannose substrate Glc3Man5GlcNAc1, read-out: α-Glucosidase I Glc3Man5GlcNAc1 IC50.
[3] abbreviates: pentamannose substrate Glc1Man5GlcNAc1, read-out: α-Glucosidase II (b) Glc1Man5GlcNAc1 IC50.
Setting [4] is: pentamannose substrate Glc2Man5GlcNAc1, read-out: α-Glucosidase II (a) Glc2Man5GlcNAc1 IC50.

Like-named read-outs stand apart in the source and are kept apart here.

T2 sequence (A0A8I6ADW9 1-525 partner): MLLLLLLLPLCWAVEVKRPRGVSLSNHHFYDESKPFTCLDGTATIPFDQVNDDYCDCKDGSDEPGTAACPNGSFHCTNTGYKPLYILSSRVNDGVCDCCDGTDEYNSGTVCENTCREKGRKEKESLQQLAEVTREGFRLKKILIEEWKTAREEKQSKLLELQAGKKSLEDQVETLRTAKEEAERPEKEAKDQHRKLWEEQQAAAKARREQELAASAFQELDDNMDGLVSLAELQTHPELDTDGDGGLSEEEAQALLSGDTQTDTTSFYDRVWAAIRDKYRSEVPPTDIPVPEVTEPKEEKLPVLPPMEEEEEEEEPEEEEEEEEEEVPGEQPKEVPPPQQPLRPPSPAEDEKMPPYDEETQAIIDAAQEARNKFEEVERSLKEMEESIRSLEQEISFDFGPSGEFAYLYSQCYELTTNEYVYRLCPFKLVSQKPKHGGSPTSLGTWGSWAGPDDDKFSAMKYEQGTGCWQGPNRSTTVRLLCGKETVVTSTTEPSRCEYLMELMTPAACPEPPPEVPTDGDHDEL

As to `CCCCN1C[C@H](O)[C@@H](O)[C@H](O)[C@H]1CO` [NB-DNJ, N-butyl-DNJ, reference compound], the IC50 was determined as 590 ± 80 nM on α-glucosidase I (setting [1]), 680 ± 150 nM at α-glucosidase I (setting [2]), 53 ± 16.6 µM on α-glucosidase II (setting [3]) and 10.8 ± 1.1 µM on α-glucosidase II (setting [4]).
Regarding `O=[N+]([O-])c1ccc(NCCCCCCN2C[C@H](O)[C@@H](O)[C@H](O)[C@H]2CO)c([N+](=O)[O-])c1` [NDP-DNJ, N—(N′-{2,4-dinitrophenyl)-6-aminohexyl)-deoxynojirimycin], the IC50 at α-glucosidase I (heptamannose substrate Glc3Man7GlcNAc1, read-out: α-Glucosidase I Glc3Man7GlcNAc1 IC50) came out at 45 ± 3 nM; at α-glucosidase I (setting [1]), 54 ± 20 nM; on α-glucosidase I (setting [2]), 108 ± 20 nM; at α-glucosidase II (heptamannose substrate Glc1Man7GlcNAc1, read-out: α-Glucosidase II (b) Glc1Man7GlcNAc1 IC50) it was 10.2 ± 0.02 µM; at α-glucosidase II (heptamannose substrate Glc2Man7GlcNAc1, read-out: α-Glucosidase II (a) Glc2Man7GlcNAc1 IC50), 18.1 ± 1.6 µM; on α-glucosidase II (setting [3]) it was 1.9 ± 0.4 µM. Further, the IC50 on α-glucosidase II (setting [4]) stood at 6.9 ± 3.4 µM.

The record behind these values is patent publication US8975280B2, “Deoxynojirimycin and D-arabinitol analogs and methods of using” (The Chancellor, Masters and Scholars of The University of …, priority 2006, dated 2015).
